System: FR-positive KB tumors
Experiment: Tissue distribution, KB tumor model (Example 16, Table 5)
Assay type: in vivo, nude mice
Conditions: for Blood / Heart / Kidney (one) / Liver & Gall Bladder / Lungs / Muscle / Spleen / Stomach, Intestines & Contents / Tumor: 99mTc-labelled conjugate, 4 hours post i.v.; for accumulation in FR-positive KB tumors and kidneys on co-administration of free folate: about 20-fold excess of free folate
Experimental: The protocols used in this example are similar to those described in Example 11. The ability of ^99mTc-EC11 (peptide-A1), ^99mTc-EC13 (peptide-A3), and ^99mTc-EC14 (peptide-A2) to target tumors in vivo was assessed using the FR-positive KB tumor model.
FR-positive KB tumor cells (0.25×10^6 per animal) were inoculated subcutaneously in the intracapsular region. Fourteen days after tumor cell inoculation, the animals (n=4/group) were injected intravenously with ^99mTc-EC11, ^99mTc-EC13, or ^99mTc-EC14 at the doses (about 12 μg/kg) of the conjugates shown in Table 5 below. Stocks of ^99mTc-EC11, ^99mTc-EC13, and ^99mTc-EC14 solutions were prepared on the day of use as described above. About a 20-fold excess of free folate (about 200 μg/kg) was co-administered to control animals (n=4/group). […] Selected tissues were removed, weighed, and counted in an automatic gamma counter to determine ^99mTc distribution. Uptake of the radiopharmaceutical in terms of percentage injected dose of wet weight tissue (% ID/g) was calculated by reference to standards prepared from dilutions of the injected preparation.

[1] = folic acid dihydrate co-injected (about 200 μg/kg)
[2] = folic acid dihydrate co-injected

| Structure (SMILES) | Blood [1] | Heart [1] | Kidney (one) [1] | Liver & Gall Bladder [1] | Lungs [1] | Muscle [1] | Spleen [1] | Stomach, Intestines & Contents [1] | Tumor [1] | Blood (no folic acid) | Heart (no folic acid) | Kidney (one) (no folic acid) | Liver & Gall Bladder (no folic acid) | Lungs (no folic acid) | Muscle (no folic acid) | Spleen (no folic acid) | Stomach, Intestines & Contents (no folic acid) | Tumor (no folic acid, KB tumor) | Tumor/Blood [2] | Tumor/Kidney [2] | further results |
| --- | --- | --- | --- | --- | --- | --- | --- | --- | --- | --- | --- | --- | --- | --- | --- | --- | --- | --- | --- | --- | --- |
| Nc1nc2ncc(CNc3ccc(C(=O)N[C@@H](CCC(=O)N[C@@H](CCC(=O)NC[C@H](N)C(=O)N[C@@H](CC(=O)O)C(=O)N[C@@H](CS)C(=O)O)C(=O)O)C(=O)O)cc3)nc2c(=O)[nH]1 [EC11] | 0.25 ± 0.01 Percentage of Injected 99mTc D | 0.36 ± 0.03 Percentage of Injected 99mTc D | 55.5 ± 2.3 Percentage of Injected 99mTc D | 1.6 ± 0.1 Percentage of Injected 99mTc D | 0.35 ± 0.03 Percentage of Injected 99mTc D | 0.38 ± 0.06 Percentage of Injected 99mTc D | 0.23 ± 0.01 Percentage of Injected 99mTc D | 1.1 ± 0.3 Percentage of Injected 99mTc D | 1.47 ± 0.24 Percentage of Injected 99mTc D | 0.21 ± 0.01 Percentage of Injected 99mTc D | 2.5 ± 0.3 Percentage of Injected 99mTc D | 67.8 ± 6.9 Percentage of Injected 99mTc D | 5.4 ± 1.4 Percentage of Injected 99mTc D | 1.2 ± 0.2 Percentage of Injected 99mTc D | 1.8 ± 0.1 Percentage of Injected 99mTc D | 0.38 ± 0.03 Percentage of Injected 99mTc D | 1.4 ± 0.1 Percentage of Injected 99mTc D | 2.95 ± 0.57 Percentage of Injected 99mTc D | 5.9 ± 0.9 | 0.027 ± 0.005 | Tumor/Liver [2]: 0.94 ± 0.09; Tumor/Muscle [2]: 3.9 ± 0.08; Tumor/Blood (no folic acid): 13.7 ± 2.1; Tumor/Kidney (no folic acid): 0.043 ± 0.005; Tumor/Liver (no folic acid): 0.57 ± 0.14; Tumor/Muscle (no folic acid): 1.6 ± 0.3 |
| Nc1nc2ncc(CNc3ccc(C(=O)N[C@@H](CCC(=O)NC[C@H](N)C(=O)N[C@@H](CO)C(=O)N[C@@H](CS)C(=O)O)C(=O)O)cc3)nc2c(=O)[nH]1 [EC13] | 0.16 ± 0.02 Percentage of Injected 99mTc D | 0.20 ± 0.03 Percentage of Injected 99mTc D | 29.1 ± 2.2 Percentage of Injected 99mTc D | 0.65 ± 0.04 Percentage of Injected 99mTc D | 0.23 ± 0.02 Percentage of Injected 99mTc D | 0.21 ± 0.03 Percentage of Injected 99mTc D | 0.15 ± 0.02 Percentage of Injected 99mTc D | 3.7 ± 0.7 Percentage of Injected 99mTc D | 1.67 ± 0.24 Percentage of Injected 99mTc D | 0.25 ± 0.03 Percentage of Injected 99mTc D | 1.6 ± 0.1 Percentage of Injected 99mTc D | 54.5 ± 2.4 Percentage of Injected 99mTc D | 3.5 ± 0.7 Percentage of Injected 99mTc D | 1.1 ± 0.1 Percentage of Injected 99mTc D | 1.7 ± 0.2 Percentage of Injected 99mTc D | 0.39 ± 0.06 Percentage of Injected 99mTc D | 2.5 ± 0.2 Percentage of Injected 99mTc D | 5.46 ± 0.45 Percentage of Injected 99mTc D | 10.2 ± 1.5.^ | 0.058 ± 0.010 | Tumor/Liver [2]: 2.6 ± 0.3; Tumor/Muscle [2]: 8.2 ± 2.0; Tumor/Blood (no folic acid): 22.5 ± 1.4; Tumor/Kidney (no folic acid): 0.10 ± 0.01; Tumor/Liver (no folic acid): 1.6 ± 0.2; Tumor/Muscle (no folic acid): 3.3 ± 0.3 |
| Nc1nc2ncc(CNc3ccc(C(=O)N[C@@H](CCC(=O)N[C@H](CCC(=O)NC[C@H](N)C(=O)N[C@@H](CC(=O)O)C(=O)N[C@@H](CS)C(=O)O)C(=O)O)C(=O)O)cc3)nc2c(=O)[nH]1 [EC14, Pte-D-Glu-D-Glu-βDpr-Asp-Cys] | 0.12 ± 0.02 Percentage of Injected 99mTc D | 0.24 ± 0.01 Percentage of Injected 99mTc D | 20.6 ± 2.4 Percentage of Injected 99mTc D | 0.66 ± 0.07 Percentage of Injected 99mTc D | 0.24 ± 0.02 Percentage of Injected 99mTc D | 0.26 ± 0.02 Percentage of Injected 99mTc D | 0.15 ± 0.01 Percentage of Injected 99mTc D | 0.50 ± 0.10 Percentage of Injected 99mTc D | 2.0 ± 0.5 Percentage of Injected 99mTc D | 0.19 ± 0.02 Percentage of Injected 99mTc D | 3.0 ± 0.5 Percentage of Injected 99mTc D | 44.2 ± 6.4 Percentage of Injected 99mTc D | 4.5 ± 1.0 Percentage of Injected 99mTc D | 1.6 ± 0.3 Percentage of Injected 99mTc D | 2.4 ± 0.4 Percentage of Injected 99mTc D | 0.41 ± 0.06 Percentage of Injected 99mTc D | 1.4 ± 0.1 Percentage of Injected 99mTc D | 5.57 ± 0.76 Percentage of Injected 99mTc D | 17.0 ± 4.5 | 0.10 ± 0.01 | Tumor/Liver [2]: 3.0 ± 0.6; Tumor/Muscle [2]: 7.7 ± 1.7; Tumor/Blood (no folic acid): 29.3 ± 5.2; Tumor/Kidney (no folic acid): 0.13 ± 0.03; Tumor/Liver (no folic acid): 1.3 ± 0.3; Tumor/Muscle (no folic acid): 2.4 ± 0.6 |
| Nc1nc2ncc(CNc3ccc(C(=O)N[C@@H](CCC(=O)N[C@@H](CCC(=O)NC[C@@H]4[NH2+][99Tc-]56(=[O])[S]C[C@@H](C(=O)O)[N]5C(=O)[C@H](CC(=O)O)[N]6C4=O)C(=O)O)C(=O)O)cc3)nc2c(=O)[nH]1 [^99mTc-EC11] |  |  |  |  |  |  |  |  |  |  |  |  |  |  |  |  |  |  |  |  | accumulation in FR-positive KB tumors and kidneys on co-administration of free folate: blocked |
| Nc1nc2ncc(CNc3ccc(C(=O)N[C@@H](CCC(=O)NC[C@@H]4[NH2+][99Tc-]56(=[O])[S]C[C@@H](C(=O)O)[N]5C(=O)[C@H](CO)[N]6C4=O)C(=O)O)cc3)nc2c(=O)[nH]1 [^99mTc-EC13] |  |  |  |  |  |  |  |  |  |  |  |  |  |  |  |  |  |  |  |  | accumulation in FR-positive KB tumors and kidneys on co-administration of free folate: blocked |

Reference: patent US7862798B2, “Vitamin-targeted imaging agents” (Endocyte, Inc., priority 2002, dated 2011)
